The nature of series [1]: Volume of distribution in rat. Conditions: in vivo. Type of series: ADME, organism-based.
For another series, the target named is Prothrombin (Homo sapiens, UniProt P00734). As to the kind of experiment: Inhibitory concentration of compound was determined against thrombin.
The target in series [2] is Tissue-type plasminogen activator (Homo sapiens, UniProt P00750). As to the kind of experiment: Inhibitory concentration against tissue type plasminogen activator.
In series [3] the target is T1, Coagulation factor X (Homo sapiens, UniProt P00742). Kind of series: In vitro anticoagulant potency measured in human plasma by thrombin generation (TG) assay expressed as 2 x TG. Type of series: functional, cell-free.
T1 sequence (P00742 41-179 limits assumed): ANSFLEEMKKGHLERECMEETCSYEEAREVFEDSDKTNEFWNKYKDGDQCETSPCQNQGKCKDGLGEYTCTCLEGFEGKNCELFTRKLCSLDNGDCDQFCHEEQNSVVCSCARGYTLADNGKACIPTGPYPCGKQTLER
T1 sequence (P00742 235-488 limits assumed): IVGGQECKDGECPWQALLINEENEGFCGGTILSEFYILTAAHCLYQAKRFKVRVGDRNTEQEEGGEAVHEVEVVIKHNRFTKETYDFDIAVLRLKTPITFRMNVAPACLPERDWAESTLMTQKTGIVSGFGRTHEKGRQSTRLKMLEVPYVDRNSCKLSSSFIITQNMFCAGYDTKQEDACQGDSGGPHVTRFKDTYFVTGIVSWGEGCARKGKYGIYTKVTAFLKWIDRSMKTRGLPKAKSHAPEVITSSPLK
The nature of series [4]: Clearance rate in rat. Type of series: ADME, organism-based. The conditions noted are these: in vivo.
In series [5] the target is T1, Coagulation factor X. As to the kind of experiment: Binding affinity against Coagulation factor X.
The target in series [6] is T1, Coagulation factor X. As to the kind of experiment: Inhibitory concentration against human Coagulation factor X.
A short description of series [7]: Bioavailability in rat. Type of series: ADME, organism-based. The conditions noted are these: in vivo.
In the next series the target is Plasminogen. Kind of series: Inhibitory concentration of compound was determined against Plasmin.
Plasminogen, sequence (Q01177 97-581 limits assumed): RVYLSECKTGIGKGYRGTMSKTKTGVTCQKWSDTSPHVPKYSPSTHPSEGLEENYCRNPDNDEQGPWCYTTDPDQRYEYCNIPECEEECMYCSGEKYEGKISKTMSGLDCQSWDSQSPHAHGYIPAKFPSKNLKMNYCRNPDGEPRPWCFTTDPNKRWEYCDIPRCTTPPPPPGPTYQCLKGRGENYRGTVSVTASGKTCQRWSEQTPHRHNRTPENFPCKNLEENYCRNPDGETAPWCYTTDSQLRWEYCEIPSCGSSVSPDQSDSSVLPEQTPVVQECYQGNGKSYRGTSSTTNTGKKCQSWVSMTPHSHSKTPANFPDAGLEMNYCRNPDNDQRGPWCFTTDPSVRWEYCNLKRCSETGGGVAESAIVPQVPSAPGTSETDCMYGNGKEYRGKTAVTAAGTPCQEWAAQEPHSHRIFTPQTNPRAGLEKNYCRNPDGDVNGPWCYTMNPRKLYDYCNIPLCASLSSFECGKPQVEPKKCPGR
Plasminogen, sequence (Q01177 582-812 limits assumed): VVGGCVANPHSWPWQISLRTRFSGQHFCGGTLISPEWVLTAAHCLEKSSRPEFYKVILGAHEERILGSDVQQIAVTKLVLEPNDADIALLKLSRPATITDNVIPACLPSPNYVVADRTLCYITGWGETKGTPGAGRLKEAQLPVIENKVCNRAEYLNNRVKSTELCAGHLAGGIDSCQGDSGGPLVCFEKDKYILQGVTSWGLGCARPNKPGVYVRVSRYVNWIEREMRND
A short description of series [8]: Half-life determined in rat. Conditions: in vivo. Type of series: ADME, organism-based.
Another series concerns the target Kallikrein-1 (Homo sapiens, UniProt P06870). Kind of series: Inhibitory concentration of compound was determined against kallikrein.
A further series addresses Serine protease 1 (Homo sapiens, UniProt P07477). Kind of series: Inhibitory concentration of compound was determined against trypsin.
Series [9] has as its target T2, Vitamin K-dependent protein C (Homo sapiens, UniProt P04070). Kind of series: Inhibitory concentration of compound was determined against activated protein C (aPC).
The target in series [10] is T2, Vitamin K-dependent protein C. As to the kind of experiment: Inhibitory concentration of compound was determined against activated protein C.

The structures appear in SMILES notation. pIC50, pKi: −log10 of the molar value. Some results are limits rather than exact numbers.

As usually defined, the Vd is a proportionality between amount in the body and measured concentration, not a real space. Higher therefore signals extensive tissue distribution. By pIC50 is commonly meant −log10 of the IC50, conventionally taken in molar units. Lower therefore signals a large IC50. The term clearance denotes the rate of elimination divided by the concentration. Read a high clearance as a high capacity for elimination. What is called pKi is −log10 of the Ki, conventionally taken in molar units. One may read the bioavailability as dose-corrected exposure relative to a reference, in per cent. One may read the half-life as the time in which the quantity being followed falls by half.

T2 sequence (P04070 43-197 limits assumed): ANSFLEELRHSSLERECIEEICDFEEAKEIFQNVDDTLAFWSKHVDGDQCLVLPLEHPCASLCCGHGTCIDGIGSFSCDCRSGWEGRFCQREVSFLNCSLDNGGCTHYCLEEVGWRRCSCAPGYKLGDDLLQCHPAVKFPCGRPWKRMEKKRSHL
T2 sequence (P04070 212-461 limits assumed): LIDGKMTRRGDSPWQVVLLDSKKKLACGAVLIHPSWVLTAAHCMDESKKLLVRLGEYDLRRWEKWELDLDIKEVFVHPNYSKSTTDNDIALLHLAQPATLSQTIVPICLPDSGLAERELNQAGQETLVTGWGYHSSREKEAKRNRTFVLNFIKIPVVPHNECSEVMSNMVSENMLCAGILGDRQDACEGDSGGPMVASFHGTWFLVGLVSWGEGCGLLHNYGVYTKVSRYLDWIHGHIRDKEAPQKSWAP
Serine protease 1, sequence (P07477 whole entry): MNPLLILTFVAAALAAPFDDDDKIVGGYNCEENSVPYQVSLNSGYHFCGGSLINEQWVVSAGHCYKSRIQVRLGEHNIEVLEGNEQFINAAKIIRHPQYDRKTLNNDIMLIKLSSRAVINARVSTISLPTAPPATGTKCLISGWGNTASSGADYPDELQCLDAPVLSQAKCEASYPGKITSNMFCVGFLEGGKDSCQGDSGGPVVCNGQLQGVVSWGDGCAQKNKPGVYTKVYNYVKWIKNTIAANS
Tissue-type plasminogen activator, sequence (P00750 whole entry): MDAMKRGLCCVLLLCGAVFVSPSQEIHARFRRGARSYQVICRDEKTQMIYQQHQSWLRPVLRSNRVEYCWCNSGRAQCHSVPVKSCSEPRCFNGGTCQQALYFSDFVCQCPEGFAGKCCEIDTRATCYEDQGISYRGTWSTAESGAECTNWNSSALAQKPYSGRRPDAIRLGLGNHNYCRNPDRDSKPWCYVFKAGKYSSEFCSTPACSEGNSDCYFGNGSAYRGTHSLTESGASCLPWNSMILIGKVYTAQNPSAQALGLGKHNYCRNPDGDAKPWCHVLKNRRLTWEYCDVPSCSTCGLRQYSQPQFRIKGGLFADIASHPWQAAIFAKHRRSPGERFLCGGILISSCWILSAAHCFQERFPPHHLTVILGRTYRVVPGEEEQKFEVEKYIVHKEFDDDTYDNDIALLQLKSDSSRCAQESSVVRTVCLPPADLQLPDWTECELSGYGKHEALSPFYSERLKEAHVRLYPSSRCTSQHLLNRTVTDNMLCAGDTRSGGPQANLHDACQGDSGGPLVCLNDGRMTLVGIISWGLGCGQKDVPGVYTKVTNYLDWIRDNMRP
Kallikrein-1, sequence (P06870 whole entry): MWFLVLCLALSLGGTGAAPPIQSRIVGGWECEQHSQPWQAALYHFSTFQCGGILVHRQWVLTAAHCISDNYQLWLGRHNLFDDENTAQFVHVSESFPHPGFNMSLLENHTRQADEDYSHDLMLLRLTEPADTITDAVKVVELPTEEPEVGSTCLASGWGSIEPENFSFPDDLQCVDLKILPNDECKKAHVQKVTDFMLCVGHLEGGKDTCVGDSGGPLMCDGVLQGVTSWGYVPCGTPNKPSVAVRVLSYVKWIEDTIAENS

For the compound `Cc1cc(C(=O)Nc2ccc(-c3ccccc3CN(C)C)cc2F)n(-c2cc3ccccc3cc2S(C)(=O)=O)n1`, the Vd in series [1] was 27.3 L/kg. Besides, the pIC50 against Prothrombin was < 5.00; in [2] it was < 5.00; against Coagulation factor X [6], 8.15; at Plasminogen, < 5.00; against Kallikrein-1, < 5.00; against Serine protease 1 it was < 5.00. In [9], the pIC50 is < 5.00. In addition, the Activity at Coagulation factor X [3] is 0.64 µM. The compound further had a clearance in [4] of 114 mL/min/kg. Further, the pKi on Coagulation factor X [5] is 8.62. In [7], the bioavailability is 18%. Also, the half-life in series [8] was 2.8 h.
As for `Cc1cc(C(=O)Nc2ccc(-c3ccccc3S(C)(=O)=O)cc2F)n(-c2cc3ccccc3cc2S(C)(=O)=O)n1`, the Vd in series [1] was 2.6 L/kg. For the same compound, the pIC50 is < 5.00 on Prothrombin; < 5.00 in series [2]; 8.05 against Coagulation factor X [6]; < 5.00 at Plasminogen; < 5.00 at Kallikrein-1; < 5.00 on Serine protease 1. Further, the pIC50 in series [9] was < 5.00. The same compound gave an Activity on Coagulation factor X [3] of 1 µM. The same compound gave a clearance in [4] of 41.2 mL/min/kg. The compound also gave a pKi at Coagulation factor X [5] of 8.77. In [7], this compound had a bioavailability of 18%. Besides, the half-life in series [8] is 0.7 h.
In [1], `Cc1cc(C(=O)Nc2ccc(N3CCOCC3=O)cc2F)n(-c2cc3ccccc3cc2S(C)(=O)=O)n1` had a distribution volume (Vd) of 0.8 L/kg. Besides, the pIC50 in series [10] was < 5.00; at Prothrombin it was < 5.00; in series [2], < 5.00; at Coagulation factor X [6] it was 8.70; at Plasminogen, < 5.00; against Kallikrein-1 it was < 5.00. The pIC50 against Serine protease 1 is < 5.00. At Coagulation factor X [3], this compound returned an Activity of 0.44 µM. The same compound had a clearance in [4] of 16.8 mL/min/kg. The same compound had a pKi at Coagulation factor X [5] of 9.10. In series [7], this compound yielded a bioavailability of 19.3%. The same compound had a half-life in series [8] of 0.5 h.
`Cc1cc(C(=O)Nc2ccc(-c3ccccc3CN)cc2F)n(-c2cc3ccccc3cc2F)n1` displayed a Vd in series [1] of 11 L/kg. For the same compound, the pIC50 is < 5.00 at Prothrombin; < 5.00 in series [2]; 8.70 against Coagulation factor X [6]; < 5.00 against Plasminogen; < 5.00 on Kallikrein-1; < 5.00 against Serine protease 1. In series [9], the pIC50 was < 5.00. The Activity at Coagulation factor X [3] turned out to be 2.2 µM. For the same compound, the clearance in series [4] worked out at 51.8 mL/min/kg. Moreover, the pKi at Coagulation factor X [5] was 8.62. This compound registered a bioavailability in [7] of 22.8%. In series [8], this compound gave a half-life of 2.5 h.
Regarding `Cc1cc(C(=O)Nc2ccc(N3CCCCC3=O)cc2)n(-c2ccc3cc(Cl)ccc3c2)n1`, the Activity on Coagulation factor X [3] is > 5 µM. The compound further had a pKi at Coagulation factor X [5] of 8.96. This compound showed a pIC50 at Coagulation factor X [6] of 8.52.
For the compound `Cc1cc(C(=O)Nc2ccc(-n3ccnc3C)cc2)n(-c2ccc3cc(Cl)ccc3c2)n1`, at Coagulation factor X [3], the Activity is > 5 µM. Besides, the pKi at Coagulation factor X [5] is 8.54. The compound further had a pIC50 against Coagulation factor X [6] of 8.10.
For the compound `Cc1cc(C(=O)Nc2ccc(-c3ccccc3CN(C)C)cc2F)n(-c2ccc3cc(Cl)ccc3c2)n1`, the Vd in [1] amounted to 22.1 L/kg. The pIC50 at Prothrombin was 5.26; in [2], < 5.00; on Coagulation factor X [6] it was 8.70; at Plasminogen it was < 5.00; against Kallikrein-1, 5.01; against Serine protease 1 it was < 5.00. The pIC50 in series [9] was < 5.00. The compound also gave an Activity on Coagulation factor X [3] of 1.7 µM. In series [4], this compound yielded a clearance of 35.7 mL/min/kg. Further, the pKi on Coagulation factor X [5] was 8.82. Besides, the bioavailability in series [7] is 35.2%. In series [8], the half-life was 7.2 h.
